Data: ChEMBL document CHEMBL1201862, “PubChem BioAssay data set” (2004)
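Each compound was tested at five concentrations against cells in 96-well plates for 48 hours. Abbreviation: GI50, concentration required for 50% inhibition of growth.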 Calls of active or inactive are those of the source. Rule as the data show it: active = GI50 up to about 1.1 µM and inactive = higher.

Key:
Assay in all cases: growth of human tumour cells (NCI), 48 h
[1] = test system: 786-0
[2] = test system: A549
[3] = test system: ACHN
[4] = test system: CAKI-1
[5] = test system: CCRF-CEM
[6] = test system: COLO 205
[7] = test system: DLD-1
[8] = test system: DMS-114
[9] = test system: DMS-273
[10] = test system: EKVX
[11] = test system: HCC 2998
[12] = test system: HCT-116
[13] = test system: HCT-15
[14] = test system: HL-60
[15] = test system: HOP-18
[16] = test system: HOP-62
[17] = test system: HT-29
[18] = test system: IGROV-1
[19] = test system: K562
[20] = test system: KM-20L2
[21] = test system: KM12
[22] = test system: LOX IMVI
[23] = test system: LXFL 529
[24] = test system: M14
[25] = test system: M19-MEL
[26] = test system: MOLT-4
[27] = test system: Malme-3M
[28] = test system: NCI-H226
[29] = test system: NCI-H23
[30] = test system: NCI-H460
[31] = test system: NCI-H522
[32] = test system: OVCAR-3
[33] = test system: OVCAR-4
[34] = test system: OVCAR-5
[35] = test system: OVCAR-8
[36] = test system: RPMI-8226
[37] = test system: RXF 393
[38] = test system: SF-268
[39] = test system: SF-295
[40] = test system: SK-MEL-28
[41] = test system: SK-MEL-2
[42] = test system: SK-OV-3
[43] = test system: SN12C
[44] = test system: SNB-19
[45] = test system: SNB-75
[46] = test system: SNB-78
[47] = test system: SR
[48] = test system: SW-620
[49] = test system: TK-10
[50] = test system: U-251
[51] = test system: UACC-257
[52] = test system: UACC-62
[53] = test system: UO-31
[54] = test system: XF498
[55] = test system: SF-539
[56] = test system: SK-MEL-5

## CC1CCCc2c1c1ccc3c(O)cccc3c1oc2=O (configuration not stated)
[1]
  GI50: 19.5 µM (inactive)
[2]
  GI50: 56.9 µM (inactive)
[3]
  GI50: 19.7 µM (inactive)
[4]
  GI50: 39.4 µM (inactive)
[5]
  GI50: 67.1 µM (inactive)
[6]
  GI50: > 100 µM (inactive)
[7]
  GI50: > 100 µM (inactive)
[8]
  GI50: 19.6 µM (inactive)
[9]
  GI50: 31.1 µM (inactive)
[10]
  GI50: 2.05 µM (inactive)
[11]
  GI50: > 100 µM (inactive)
[12]
  GI50: 91.8 µM (inactive)
[13]
  GI50: > 100 µM
[14]
  GI50: > 100 µM (inactive)
[15]
  GI50: 26.6 µM (inactive)
[16]
  GI50: 18.7 µM (inactive)
[17]
  GI50: > 100 µM (inactive)
[18]
  GI50: 39.6 µM (inactive)
[19]
  GI50: > 100 µM (inactive)
[20]
  GI50: > 100 µM (inactive)
[21]
  GI50: > 100 µM (inactive)
[22]
  GI50: 95.5 µM (inactive)
[23]
  GI50: 48.8 µM (inactive)
[24]
  GI50: > 100 µM (inactive)
[25]
  GI50: > 100 µM (inactive)
[26]
  GI50: > 100 µM (inactive)
[27]
  GI50: > 100 µM (inactive)
[28]
  GI50: > 100 µM (inactive)
[29]
  GI50: 29.9 µM (inactive)
[30]
  GI50: > 100 µM (inactive)
[31]
  GI50: 13.7 µM (inactive)
[32]
  GI50: 64.1 µM (inactive)
[33]
  GI50: 14.1 µM (inactive)
[34]
  GI50: 71.8 µM (inactive)
[35]
  GI50: 31.3 µM (inactive)
[36]
  GI50: 55.1 µM (inactive)
[37]
  GI50: 18.8 µM (inactive)
[38]
  GI50: 17.3 µM (inactive)
[39]
  GI50: 14.8 µM (inactive)
[40]
  GI50: > 100 µM (inactive)
[41]
  GI50: 28.9 µM (inactive)
[42]
  GI50: 20.7 µM (inactive)
[43]
  GI50: 43 µM (inactive)
[44]
  GI50: 34.7 µM (inactive)
[45]
  GI50: 8.15 µM (inactive)
[46]
  GI50: 23.1 µM (inactive)
[47]
  GI50: > 100 µM (inactive)
[48]
  GI50: > 100 µM (inactive)
[49]
  GI50: 28.8 µM (inactive)
[50]
  GI50: 33.8 µM (inactive)
[51]
  GI50: > 100 µM (inactive)
[52]
  GI50: 35.1 µM (inactive)
[53]
  GI50: > 100 µM (inactive)
[54]
  GI50: 55 µM (inactive)

## CCO/S(=N/S(=O)(=O)c1ccccc1)c1ccccc1[N+](=O)[O-] (configuration not stated)
[1]
  GI50: > 100 µM (inactive)
[2]
  GI50: > 100 µM (inactive)
[4]
  GI50: > 100 µM (inactive)
[5]
  GI50: 80.2 µM (inactive)
[6]
  GI50: > 100 µM (inactive)
[7]
  GI50: > 100 µM (inactive)
[8]
  GI50: > 100 µM (inactive)
[9]
  GI50: > 100 µM (inactive)
[10]
  GI50: > 100 µM (inactive)
[11]
  GI50: > 100 µM (inactive)
[13]
  GI50: > 100 µM
[15]
  GI50: > 100 µM (inactive)
[16]
  GI50: > 100 µM (inactive)
[17]
  GI50: > 100 µM (inactive)
[18]
  GI50: > 100 µM (inactive)
[19]
  GI50: > 100 µM (inactive)
[20]
  GI50: > 100 µM (inactive)
[21]
  GI50: > 100 µM (inactive)
[22]
  GI50: > 100 µM (inactive)
[23]
  GI50: > 100 µM (inactive)
[24]
  GI50: > 100 µM (inactive)
[25]
  GI50: > 100 µM (inactive)
[26]
  GI50: > 100 µM (inactive)
[27]
  GI50: > 100 µM (inactive)
[28]
  GI50: > 100 µM (inactive)
[29]
  GI50: > 100 µM (inactive)
[30]
  GI50: > 100 µM (inactive)
[31]
  GI50: > 100 µM (inactive)
[32]
  GI50: > 100 µM (inactive)
[33]
  GI50: 44.1 µM (inactive)
[34]
  GI50: > 100 µM (inactive)
[35]
  GI50: > 100 µM (inactive)
[36]
  GI50: > 100 µM (inactive)
[38]
  GI50: > 100 µM (inactive)
[39]
  GI50: > 100 µM (inactive)
[55]
  GI50: > 100 µM (inactive)
[40]
  GI50: > 100 µM (inactive)
[41]
  GI50: > 100 µM (inactive)
[56]
  GI50: > 100 µM (inactive)
[42]
  GI50: > 100 µM (inactive)
[43]
  GI50: > 100 µM (inactive)
[44]
  GI50: > 100 µM (inactive)
[45]
  GI50: > 100 µM (inactive)
[47]
  GI50: > 100 µM (inactive)
[48]
  GI50: > 100 µM (inactive)
[50]
  GI50: > 100 µM (inactive)
[51]
  GI50: > 100 µM (inactive)
[52]
  GI50: > 100 µM (inactive)
[53]
  GI50: > 100 µM (inactive)
[54]
  GI50: > 100 µM (inactive)

## COc1cc(C(C)c2cc3c(cc2OCCO)OCO3)cc(OC)c1OC (configuration not stated)
[2]
  GI50: 2.32 µM (inactive)
[3]
  GI50: 10.1 µM (inactive)
[4]
  GI50: 5.11 µM (inactive)
[5]
  GI50: 1.82 µM (inactive)
[6]
  GI50: 1.34 µM (inactive)
[7]
  GI50: 1.71 µM (inactive)
[8]
  GI50: 0.562 µM (active)
[9]
  GI50: 0.413 µM (active)
[10]
  GI50: 3.79 µM (inactive)
[11]
  GI50: 2.04 µM (inactive)
[12]
  GI50: 1.38 µM (inactive)
[13]
  GI50: 0.824 µM
[14]
  GI50: 0.313 µM (active)
[15]
  GI50: > 100 µM (inactive)
[16]
  GI50: 1.74 µM (inactive)
[17]
  GI50: 0.436 µM (active)
[18]
  GI50: 0.832 µM (active)
[19]
  GI50: 0.486 µM (active)
[20]
  GI50: 1.43 µM (inactive)
[22]
  GI50: 2.75 µM (inactive)
[23]
  GI50: 2.77 µM (inactive)
[24]
  GI50: 1.18 µM (inactive)
[25]
  GI50: 1.66 µM (inactive)
[26]
  GI50: 0.935 µM (active)
[27]
  GI50: > 100 µM (inactive)
[28]
  GI50: 2.86 µM (inactive)
[29]
  GI50: 1.91 µM (inactive)
[30]
  GI50: 2.2 µM (inactive)
[31]
  GI50: 0.547 µM (active)
[32]
  GI50: 0.538 µM (active)
[33]
  GI50: 45.3 µM (inactive)
[34]
  GI50: > 100 µM (inactive)
[35]
  GI50: 3.27 µM (inactive)
[36]
  GI50: 4.59 µM (inactive)
[37]
  GI50: 0.63 µM (active)
[38]
  GI50: 3.9 µM (inactive)
[39]
  GI50: 0.413 µM (active)
[55]
  GI50: 1.6 µM (inactive)
[41]
  GI50: 2 µM (inactive)
[56]
  GI50: 0.667 µM (active)
[42]
  GI50: 2.19 µM (inactive)
[43]
  GI50: 5.82 µM (inactive)
[44]
  GI50: 3.93 µM (inactive)
[45]
  GI50: 1.2 µM (inactive)
[46]
  GI50: 12.2 µM (inactive)
[47]
  GI50: 0.299 µM (active)
[48]
  GI50: 0.746 µM (active)
[49]
  GI50: 18.3 µM (inactive)
[50]
  GI50: 2.48 µM (inactive)
[51]
  GI50: 7.16 µM (inactive)
[52]
  GI50: 0.601 µM (active)
[53]
  GI50: 5.82 µM (inactive)
[54]
  GI50: < 0.01 µM (active)
